Read-outs that look alike come from different tables or passages of the source.
What was measured:
[1] = Animal models of immune disease; assay type: in vivo; details: 0.03 mg/kg dose
Experimental: Without being limited by any particular theory or mechanism, a preferred embodiment of the method is administering systemically a dose of a proteasome inhibitor that gives partial inhibition (20-30%) of red blood cell proteasome activity. In human subjects, a Velcade™ PS-341dose of 0.4 mg/m^2 gave 30% inhibition of blood cell proteasome activity after a single intravenous bolus injection; (Orlowski et al. 2002 J. Clin. Oncol. 20 pp. 4420-27).

[2] = system: CD4Th1 T cell mediated inflammation; assay: Delayed type hypersensitivity (DTH) reaction in mice, ear swelling after topical DNFB; assay type: in vivo; details: PS 341 0.003 to 0.01 or 0.03 mg/kg co-administered with IL2 (4 ng), FIG. 2
Description: FIG. 1 is a drawing of a protocol for induction and assay of delayed-type hypersensitivity (DTH) in mice, as a function of time from left to right. Groups of experimental animals are sensitized on two successive days (at time points indicated as days—5 and —4 in the Figure) by application of 2,4-dinitro-1-fluorobenzene (DNFB; obtained from Sigma, St. Louis, Mo) to footpads, the DNFB dissolved in acetone or acetone/olive oil. After an additional day (at time indicated as day—3) proteasome inhibitor PS 341 and interleukin 2 (IL 2) are administered by intraperitoneal injection (IP). Animals are challenged, elicited for a T cell response, with DNFB topically applied to a target tissue such as ears at a point in time […] after administration, the point in time indicated as day 0. Swelling of the target, i.e., ear marker organ or tissue is measured at subsequent time points, exemplified as day 1 in the Figure.
Groups of experimental and control mice are administered an IL2 dose which is a constant amount (4 ng) in each group with the exception of a group of control animals not administered IL2, and are administered an amount of PS 341 that is varied (from 0.003 to 0.01 or 0.03 mg/kg total weight) in each of the various experimental groups. A control group of mice is administered IL 2 alone (no PS 341). […]
Inflammation was measured by ear swelling after applying topical DNFB. […]

blood cell proteasome [3] = details: rats, cited from earlier work
blood cell proteasome [4] = details: cited from earlier work
[5] = humans, cited from earlier work
[6] = cited from earlier work
[7] = human subjects, 0.4 mg/m^2; cited from earlier work
[8] = animal models and human subjects; cited from earlier work
[9] = target: T1, high affinity IL2 receptor (Homo sapiens, UniProt P01589+P14784+P31785); details: high affinity IL2 receptor on activated T cells; cited from earlier work
T1 sequence (P01589 22-272): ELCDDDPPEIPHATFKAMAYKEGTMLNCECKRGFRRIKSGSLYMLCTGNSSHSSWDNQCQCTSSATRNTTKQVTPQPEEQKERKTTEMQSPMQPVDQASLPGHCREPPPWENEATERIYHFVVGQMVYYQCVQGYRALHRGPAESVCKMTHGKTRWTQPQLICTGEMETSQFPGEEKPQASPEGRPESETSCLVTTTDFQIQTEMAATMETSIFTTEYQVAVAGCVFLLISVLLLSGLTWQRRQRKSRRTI
T1 sequence (P14784 27-551): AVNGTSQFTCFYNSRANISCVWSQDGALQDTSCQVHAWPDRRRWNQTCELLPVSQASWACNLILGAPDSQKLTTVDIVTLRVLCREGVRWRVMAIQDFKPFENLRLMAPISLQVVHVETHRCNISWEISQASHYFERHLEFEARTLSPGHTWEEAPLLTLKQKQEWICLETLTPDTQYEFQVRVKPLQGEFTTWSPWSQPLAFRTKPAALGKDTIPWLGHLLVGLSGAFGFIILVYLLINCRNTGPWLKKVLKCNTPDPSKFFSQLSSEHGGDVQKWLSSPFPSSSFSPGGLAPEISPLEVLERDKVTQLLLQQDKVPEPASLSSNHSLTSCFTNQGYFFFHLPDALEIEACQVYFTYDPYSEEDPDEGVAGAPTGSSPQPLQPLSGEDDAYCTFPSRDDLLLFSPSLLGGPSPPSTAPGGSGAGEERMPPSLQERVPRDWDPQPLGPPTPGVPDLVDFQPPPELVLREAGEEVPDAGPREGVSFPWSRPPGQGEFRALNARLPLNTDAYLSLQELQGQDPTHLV
T1 sequence (P31785 23-369): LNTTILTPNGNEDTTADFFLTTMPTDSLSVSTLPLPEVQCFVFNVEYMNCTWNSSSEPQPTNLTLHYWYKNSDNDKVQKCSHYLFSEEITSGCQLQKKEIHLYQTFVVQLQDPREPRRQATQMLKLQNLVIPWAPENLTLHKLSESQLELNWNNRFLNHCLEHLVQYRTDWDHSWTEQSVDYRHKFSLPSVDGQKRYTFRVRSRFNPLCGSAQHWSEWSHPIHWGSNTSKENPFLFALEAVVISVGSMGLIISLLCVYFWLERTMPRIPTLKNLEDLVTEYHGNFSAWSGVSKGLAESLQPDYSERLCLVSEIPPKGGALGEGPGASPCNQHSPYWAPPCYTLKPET

[10] = in vivo; cited from earlier work
[11] = cited from earlier work; remark: listed apart in the source

With `CC(C)C[C@H](NC(=O)[C@H](Cc1ccccc1)NC(=O)c1cnccn1)B(O)O` [PS-341, Pyz Phe boro leu; Pyz2,5 pyraninecarboxylic acid] as the compound, how does the therapeutic effect [1] read?
Its therapeutic effect is “not effective therapeutically”.

And the tolerability [1]?
Its tolerability is “well tolerated”.

And the “inhibition of DTH (ear swelling)” value [2]?
The value was “increasing inhibition of DTH”.

What about the partial proteasome inhibition (blood cell proteasome [3]; 0.03 mg/kg intravenous bolus dose) of the same compound?
Its partial proteasome inhibition is 20-30%.

And the “maximal blood cell proteasome inhibition” value (blood cell proteasome [3]; 0.3 mg/kg intravenous bolus, one hour after dosing)?
Its value is 80%.

And the “inhibition of blood cell proteasome activity” value (blood cell proteasome [4]; human subjects, 0.4 mg/m^2, single intravenous bolus injection)?
Its value is 30%.

And the “maximal blood cell proteasome inhibition” value (blood cell proteasome [4]; humans, 1.38 mg/m^2 intravenous bolus, one hour after dosing)?
Its value is 80%.

And the half-life [5]?
Its half-life is “approximately 24 hours”.

What about the half-life ([5]; listed as Velcade) of the same compound?
Its half-life is 24 h.

What about the adverse events ([6]; human studies, doses that are 1 mg/m^2) of the same compound?
Its adverse events is “adverse events are observed”.

What about the serious adverse events ([6]; human subjects, dose that causes partial inhibition of blood proteasome activity) of the same compound?
The serious adverse events was “does not cause serious adverse events”.

What about the adverse events ([6]; human subjects, doses less than or equal to 0.4 mg/m^2, multiple administration) of the same compound?
Its adverse events is “No adverse events were observed”.

What about the therapeutic efficacy [7] of the same compound?
The therapeutic efficacy was “no significant therapeutic efficacy”.

And the toxicity [8]?
Its toxicity is “free from substantial toxicity”.

For “des ala-1 serine 125 human interleukin 2 [IL2]”, which Kd [9] is on record?
Its Kd is 0.01 nM.

And the half-life [10]?
The half-life was 1.5 h.

What about the tolerability ([11]; intravenous administration for extended periods) of the same compound?
Its tolerability is “well tolerated”.

And the tolerability ([11]; low doses (<20 million Units), repeated daily dosing for many weeks)?
The tolerability was “well tolerated”.

Source: patent US20070098685A1, “Methods and kits to treat chronic inflammatory immune diseases by administering a proteasome inhibitor and an interleukin 2 receptor agonist” (priority 2005, published 2007)
